We go through one compound from ChEMBL document CHEMBL4330132, “5-Keto-3-cyano-2,4-diaminothiophenes as selective maternal embryonic leucine zipper kinase inhibitors” (Bioorg Med Chem Lett, 2019).

The target of assay [1] is Calcium/calmodulin-dependent protein kinase type II subunit alpha (Homo sapiens) (UniProt Q9UQM7). The experiment in a line: Binding affinity to wild-type human partial length CAMK2A (M1 to K328 residues) expressed in bacterial expression system assessed as residual binding level at 1 uM by Kinomescan method relative to control.
Assay [2] deals with Tyrosine-protein kinase Srms (Homo sapiens) (UniProt Q9H3Y6). The experiment in a line: Binding affinity to wild-type human partial length SRMS (L208 to P488 residues) expressed in mammalian expression system assessed as residual binding level at 1 uM by Kinomescan method relative to control.
For assay [3], the target named is Tyrosine-protein kinase JAK1 (Homo sapiens) (UniProt P23458). The experiment in a line: Binding affinity to wild-type human partial length JAK1 JH2 pseudokinase domain (R537 to D855 residues) expressed in mammalian expression system assessed as residual binding level at 1 uM by Kinomescan method relative to control.
The target of assay [4] is G protein-coupled receptor kinase 4 (Homo sapiens) (UniProt P32298). The experiment in a line: Binding affinity to wild-type human full length GRK4 (M1 to C578 residues) expressed in bacterial expression system assessed as residual binding level at 1 uM by Kinomescan method relative to control.
Assay [5] deals with Serine/threonine-protein kinase 38 (Homo sapiens) (UniProt Q15208). The experiment in a line: Binding affinity to wild-type human partial length NDR1 (N33 to E449 residues) expressed in mammalian expression system assessed as residual binding level at 1 uM by Kinomescan method relative to control.
The target in assay [6] is Tyrosine-protein kinase ABL1 (Homo sapiens) (UniProt P00519). The experiment in a line: Binding affinity to wild-type human non-phosphorylated ABL1 (S229 to K512 residues) expressed in mammalian expression system assessed as residual binding level at 1 uM by Kinomescan method relative to control.
Assay [7] addresses Serine/threonine-protein kinase Nek3 (Homo sapiens) (UniProt P51956). The experiment in a line: Binding affinity to wild-type human full length NEK3 (M1 to R506 residues) expressed in mammalian expression system assessed as residual binding level at 1 uM by Kinomescan method relative to control.
In assay [8] the target is Platelet-derived growth factor receptor alpha (Homo sapiens) (UniProt P16234). The experiment in a line: Binding affinity to wild-type human partial length PDGFRA (V575 to D1002 residues) expressed in mammalian expression system assessed as residual binding level at 1 uM by Kinomescan method relative to control.
Assay [9] deals with Cyclin-dependent kinase 15 (Homo sapiens) (UniProt Q96Q40). The experiment in a line: Binding affinity to wild-type human full length PFTAIRE2 (M1 to W384 residues) expressed in bacterial expression system assessed as residual binding level at 1 uM by Kinomescan method relative to control.
The target in assay [10] is Uncharacterized serine/threonine-protein kinase SBK3 (Homo sapiens) (UniProt P0C264). The experiment in a line: Binding affinity to wild-type human partial length SgK110 (L22 to R329 residues) expressed in bacterial expression system assessed as residual binding level at 1 uM by Kinomescan method relative to control.
Assay [11] concerns the target Serine/threonine-protein kinase 32B (Homo sapiens) (UniProt Q9NY57). The experiment in a line: Binding affinity to wild-type human full length YANK2 (M1 to S414 residues) expressed in bacterial expression system assessed as residual binding level at 1 uM by Kinomescan method relative to control.
Assay [12] has as its target Ribosomal protein S6 kinase alpha-6 (Homo sapiens) (UniProt Q9UK32). The experiment in a line: Binding affinity to wild-type human partial length N-terminal RSK4 kinase domain 1 (M1 to E397 residues) expressed in mammalian expression system assessed as residual binding level at 1 uM by Kinomescan method relative to control.
Assay [13] deals with Mitogen-activated protein kinase 14 (Homo sapiens) (UniProt Q16539). The experiment in a line: Binding affinity to wild-type human full length p38-alpha (M1 to S360 residues) expressed in bacterial expression system assessed as residual binding level at 1 uM by Kinomescan method relative to control.
Assay [14] deals with Dual specificity protein kinase CLK3 (Homo sapiens) (UniProt P49761). The experiment in a line: Binding affinity to wild-type human full length CLK3 (M1 to R490 residues) expressed in bacterial expression system assessed as residual binding level at 1 uM by Kinomescan method relative to control.
Assay [15] has as its target Tyrosine-protein kinase Lck (Homo sapiens) (UniProt P06239). The experiment in a line: Binding affinity to wild-type human partial length LCK (R207 to P509 residues) expressed in bacterial expression system assessed as residual binding level at 1 uM by Kinomescan method relative to control.
Assay [16] deals with Microtubule-associated serine/threonine-protein kinase 1 (Homo sapiens) (UniProt Q9Y2H9). The experiment in a line: Binding affinity to wild-type human partial length MAST1 (S346 to V730 residues) expressed in mammalian expression system assessed as residual binding level at 1 uM by Kinomescan method relative to control.
In assay [17] the target is Serine/threonine-protein kinase SIK1 (Homo sapiens) (UniProt P57059). The experiment in a line: Binding affinity to wild-type human partial length SIK (M1 to Y304 residues) expressed in bacterial expression system assessed as residual binding level at 1 uM by Kinomescan method relative to control.
Assay [18] has as its system Epidermal growth factor receptor (Homo sapiens), P00533 [G719C]. The experiment in a line: Binding affinity to human partial length EGFR G719C mutant (R669 to V1011 residues) expressed in bacterial expression system assessed as residual binding level at 1 uM by Kinomescan method relative to control.
For assay [19], the target named is Tyrosine-protein kinase receptor TYRO3 (Homo sapiens) (UniProt Q06418). The experiment in a line: Binding affinity to wild-type human partial length TYRO3 (S497 to T814 residues) expressed in bacterial expression system assessed as residual binding level at 1 uM by Kinomescan method relative to control.
For assay [20], the target named is Serine/threonine-protein kinase 36 (Homo sapiens) (UniProt Q9NRP7). The experiment in a line: Binding affinity to wild-type human partial length STK36 (M1 to T271 residues) expressed in bacterial expression system assessed as residual binding level at 1 uM by Kinomescan method relative to control.
Assay [21] addresses Interleukin-1 receptor-associated kinase 4 (Homo sapiens) (UniProt Q9NWZ3). The experiment in a line: Binding affinity to wild-type human partial length IRAK4 (M1 to S460 residues) expressed in mammalian expression system assessed as residual binding level at 1 uM by Kinomescan method relative to control.
Assay [22] has as its target Atypical kinase COQ8A, mitochondrial (Homo sapiens) (UniProt Q8NI60). The experiment in a line: Binding affinity to wild-type human full length ADCK3 (M280 to Q647 residues) expressed in bacterial expression system assessed as residual binding level at 1 uM by Kinomescan method relative to control.
The target of assay [23] is Homeodomain-interacting protein kinase 3 (Homo sapiens) (UniProt Q9H422). The experiment in a line: Binding affinity to wild-type human partial length HIPK3 (M153 to N562 residues) expressed in mammalian expression system assessed as residual binding level at 1 uM by Kinomescan method relative to control.
In assay [24] the target is Serine/threonine-protein kinase NLK (Homo sapiens) (UniProt Q9UBE8). The experiment in a line: Binding affinity to wild-type human full length NLK (M13 to E527 residues) expressed in bacterial expression system assessed as residual binding level at 1 uM by Kinomescan method relative to control.

Sequence of Ribosomal protein S6 kinase alpha-6 (Homo sapiens) (Q9UK32 whole entry, the tested form may be a part): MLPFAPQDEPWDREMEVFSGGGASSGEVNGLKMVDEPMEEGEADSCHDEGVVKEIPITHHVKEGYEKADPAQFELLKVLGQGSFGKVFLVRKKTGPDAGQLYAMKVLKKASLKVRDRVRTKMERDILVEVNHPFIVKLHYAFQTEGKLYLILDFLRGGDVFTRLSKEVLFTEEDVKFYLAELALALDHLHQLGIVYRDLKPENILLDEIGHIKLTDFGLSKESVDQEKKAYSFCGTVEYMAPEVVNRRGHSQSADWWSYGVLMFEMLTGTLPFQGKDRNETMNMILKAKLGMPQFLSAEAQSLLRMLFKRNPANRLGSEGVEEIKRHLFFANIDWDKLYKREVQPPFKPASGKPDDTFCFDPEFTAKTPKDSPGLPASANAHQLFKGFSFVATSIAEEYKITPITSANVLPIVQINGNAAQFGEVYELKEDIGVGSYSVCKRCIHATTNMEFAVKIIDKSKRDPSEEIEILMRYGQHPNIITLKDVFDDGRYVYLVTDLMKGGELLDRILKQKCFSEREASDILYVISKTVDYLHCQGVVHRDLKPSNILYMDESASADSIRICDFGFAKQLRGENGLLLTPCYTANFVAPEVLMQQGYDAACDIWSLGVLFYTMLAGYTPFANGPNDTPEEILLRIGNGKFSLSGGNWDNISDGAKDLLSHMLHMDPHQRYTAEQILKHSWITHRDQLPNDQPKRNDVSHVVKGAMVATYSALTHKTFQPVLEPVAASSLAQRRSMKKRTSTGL
Sequence of Tyrosine-protein kinase Srms (Homo sapiens) (Q9H3Y6 whole entry, the tested form may be a part): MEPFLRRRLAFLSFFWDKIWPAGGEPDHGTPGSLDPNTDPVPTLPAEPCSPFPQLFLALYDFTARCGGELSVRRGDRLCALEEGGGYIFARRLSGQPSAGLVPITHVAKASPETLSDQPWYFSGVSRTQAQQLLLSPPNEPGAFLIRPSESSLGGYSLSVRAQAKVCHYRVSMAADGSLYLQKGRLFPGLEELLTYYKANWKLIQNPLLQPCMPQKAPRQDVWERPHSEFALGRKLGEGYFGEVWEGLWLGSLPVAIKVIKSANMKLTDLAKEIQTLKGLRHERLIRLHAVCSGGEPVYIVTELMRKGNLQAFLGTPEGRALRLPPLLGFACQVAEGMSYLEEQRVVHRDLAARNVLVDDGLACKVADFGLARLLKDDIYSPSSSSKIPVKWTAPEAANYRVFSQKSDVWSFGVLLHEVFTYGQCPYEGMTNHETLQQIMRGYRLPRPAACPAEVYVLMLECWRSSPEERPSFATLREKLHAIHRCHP
Sequence of Uncharacterized serine/threonine-protein kinase SBK3 (Homo sapiens) (P0C264 whole entry, the tested form may be a part): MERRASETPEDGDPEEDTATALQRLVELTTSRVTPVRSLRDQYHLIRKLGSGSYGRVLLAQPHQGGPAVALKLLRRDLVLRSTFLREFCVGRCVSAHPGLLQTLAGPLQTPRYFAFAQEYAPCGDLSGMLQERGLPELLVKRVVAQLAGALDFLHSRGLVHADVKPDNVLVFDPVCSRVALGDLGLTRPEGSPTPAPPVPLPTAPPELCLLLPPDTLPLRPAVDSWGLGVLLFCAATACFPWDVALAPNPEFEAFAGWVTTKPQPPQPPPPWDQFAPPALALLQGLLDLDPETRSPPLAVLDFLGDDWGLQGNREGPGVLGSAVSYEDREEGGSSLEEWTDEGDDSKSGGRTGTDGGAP
Sequence of Microtubule-associated serine/threonine-protein kinase 1 (Homo sapiens) (Q9Y2H9 whole entry, looked up, the tested form may be a part): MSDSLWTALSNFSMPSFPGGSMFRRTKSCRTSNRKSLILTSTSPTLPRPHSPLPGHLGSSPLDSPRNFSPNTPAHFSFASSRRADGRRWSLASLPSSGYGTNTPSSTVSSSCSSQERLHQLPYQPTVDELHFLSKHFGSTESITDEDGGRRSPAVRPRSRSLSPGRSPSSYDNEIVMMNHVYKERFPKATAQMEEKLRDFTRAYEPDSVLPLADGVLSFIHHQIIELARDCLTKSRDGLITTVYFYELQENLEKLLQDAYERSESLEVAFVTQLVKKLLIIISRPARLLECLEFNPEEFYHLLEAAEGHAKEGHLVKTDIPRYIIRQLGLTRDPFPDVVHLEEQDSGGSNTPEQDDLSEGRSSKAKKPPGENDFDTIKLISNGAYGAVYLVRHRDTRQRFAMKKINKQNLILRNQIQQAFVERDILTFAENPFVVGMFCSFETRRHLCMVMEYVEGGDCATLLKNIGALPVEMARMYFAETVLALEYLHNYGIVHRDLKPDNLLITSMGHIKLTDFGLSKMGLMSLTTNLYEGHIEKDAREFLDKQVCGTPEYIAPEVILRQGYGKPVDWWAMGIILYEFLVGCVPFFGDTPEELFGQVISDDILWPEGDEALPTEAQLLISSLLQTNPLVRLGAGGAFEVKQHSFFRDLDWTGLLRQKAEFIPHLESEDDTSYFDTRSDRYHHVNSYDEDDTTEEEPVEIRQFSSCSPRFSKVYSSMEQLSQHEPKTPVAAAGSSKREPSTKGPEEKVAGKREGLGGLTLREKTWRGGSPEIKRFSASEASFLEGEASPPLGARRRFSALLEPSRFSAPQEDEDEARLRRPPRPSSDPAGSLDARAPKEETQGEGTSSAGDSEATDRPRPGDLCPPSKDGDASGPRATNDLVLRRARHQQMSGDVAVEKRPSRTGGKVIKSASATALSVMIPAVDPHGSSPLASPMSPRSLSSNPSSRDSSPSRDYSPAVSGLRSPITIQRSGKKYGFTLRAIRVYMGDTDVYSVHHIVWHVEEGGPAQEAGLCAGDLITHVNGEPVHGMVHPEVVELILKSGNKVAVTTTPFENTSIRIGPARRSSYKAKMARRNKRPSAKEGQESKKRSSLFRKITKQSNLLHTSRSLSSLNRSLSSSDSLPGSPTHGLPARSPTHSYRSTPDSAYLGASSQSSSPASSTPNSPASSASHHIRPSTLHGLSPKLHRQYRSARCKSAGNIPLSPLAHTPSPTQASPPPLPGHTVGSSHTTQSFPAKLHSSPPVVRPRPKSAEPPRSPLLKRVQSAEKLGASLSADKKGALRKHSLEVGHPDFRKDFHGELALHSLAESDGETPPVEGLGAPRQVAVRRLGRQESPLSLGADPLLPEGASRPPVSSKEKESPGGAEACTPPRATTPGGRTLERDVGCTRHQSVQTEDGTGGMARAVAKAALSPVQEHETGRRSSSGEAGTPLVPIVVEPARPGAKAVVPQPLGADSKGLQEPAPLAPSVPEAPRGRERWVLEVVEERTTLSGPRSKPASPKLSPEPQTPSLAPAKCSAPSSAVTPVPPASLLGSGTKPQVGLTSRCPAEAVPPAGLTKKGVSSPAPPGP
Sequence of Atypical kinase COQ8A, mitochondrial (Homo sapiens) (Q8NI60 163-647 limits assumed): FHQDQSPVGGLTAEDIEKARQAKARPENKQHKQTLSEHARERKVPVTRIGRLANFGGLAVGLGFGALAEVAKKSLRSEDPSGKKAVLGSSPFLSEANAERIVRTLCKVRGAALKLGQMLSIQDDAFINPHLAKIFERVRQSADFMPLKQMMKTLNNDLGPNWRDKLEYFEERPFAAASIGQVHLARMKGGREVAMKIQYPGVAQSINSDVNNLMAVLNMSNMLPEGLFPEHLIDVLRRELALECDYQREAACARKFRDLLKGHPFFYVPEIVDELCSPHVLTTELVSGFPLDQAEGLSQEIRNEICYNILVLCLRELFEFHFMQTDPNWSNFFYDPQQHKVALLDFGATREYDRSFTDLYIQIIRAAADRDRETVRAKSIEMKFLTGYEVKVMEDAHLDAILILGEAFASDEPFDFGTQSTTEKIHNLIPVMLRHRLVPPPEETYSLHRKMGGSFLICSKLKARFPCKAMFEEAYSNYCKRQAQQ
Sequence of G protein-coupled receptor kinase 4 (Homo sapiens) (P32298 whole entry, looked up, the tested form may be a part): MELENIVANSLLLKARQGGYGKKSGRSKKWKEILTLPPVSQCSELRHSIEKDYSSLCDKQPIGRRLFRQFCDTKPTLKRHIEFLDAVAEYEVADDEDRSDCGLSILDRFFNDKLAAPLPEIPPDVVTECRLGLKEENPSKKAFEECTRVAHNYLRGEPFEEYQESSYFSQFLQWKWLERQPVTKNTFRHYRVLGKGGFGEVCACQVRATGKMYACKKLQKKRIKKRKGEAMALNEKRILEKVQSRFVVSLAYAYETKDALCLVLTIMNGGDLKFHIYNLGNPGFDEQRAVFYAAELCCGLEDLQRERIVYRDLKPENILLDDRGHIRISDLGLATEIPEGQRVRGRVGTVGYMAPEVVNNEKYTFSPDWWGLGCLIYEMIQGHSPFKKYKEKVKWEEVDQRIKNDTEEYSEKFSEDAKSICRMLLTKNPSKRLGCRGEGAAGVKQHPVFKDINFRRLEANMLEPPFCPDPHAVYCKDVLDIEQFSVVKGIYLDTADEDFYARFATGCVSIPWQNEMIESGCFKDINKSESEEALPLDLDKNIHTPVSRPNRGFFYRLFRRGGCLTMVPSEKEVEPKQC
Sequence of Serine/threonine-protein kinase SIK1 (Homo sapiens) (P57059 whole entry, the tested form may be a part): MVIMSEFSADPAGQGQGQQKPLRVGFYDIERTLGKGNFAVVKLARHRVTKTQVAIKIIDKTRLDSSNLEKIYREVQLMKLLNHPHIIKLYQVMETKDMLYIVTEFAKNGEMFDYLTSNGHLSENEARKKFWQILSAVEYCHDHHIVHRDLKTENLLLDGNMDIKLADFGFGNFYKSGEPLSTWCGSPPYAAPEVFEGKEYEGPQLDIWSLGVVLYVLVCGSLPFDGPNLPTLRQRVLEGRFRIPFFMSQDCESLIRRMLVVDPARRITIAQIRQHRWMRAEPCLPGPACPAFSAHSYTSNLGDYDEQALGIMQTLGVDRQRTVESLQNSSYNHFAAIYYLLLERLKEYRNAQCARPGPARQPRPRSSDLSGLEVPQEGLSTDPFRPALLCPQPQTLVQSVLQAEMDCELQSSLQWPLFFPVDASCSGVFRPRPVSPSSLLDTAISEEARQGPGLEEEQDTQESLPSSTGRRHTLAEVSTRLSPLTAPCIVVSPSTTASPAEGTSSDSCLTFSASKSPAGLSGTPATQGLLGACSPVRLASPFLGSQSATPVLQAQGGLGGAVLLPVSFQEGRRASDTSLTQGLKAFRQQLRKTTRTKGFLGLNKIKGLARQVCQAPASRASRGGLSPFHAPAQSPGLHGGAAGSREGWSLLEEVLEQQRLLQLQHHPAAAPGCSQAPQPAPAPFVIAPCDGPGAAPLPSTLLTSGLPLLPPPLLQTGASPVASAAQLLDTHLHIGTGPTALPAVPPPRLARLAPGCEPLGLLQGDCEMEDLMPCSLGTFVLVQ

For `CC(C)Nc1sc(C(=O)c2ccc(Cl)s2)c(N)c1C#N`, the Activity in assay [1] was determined as 90%; in assay [2], 91%; in [3], 89%; in [4], 74%; in assay [5], 74%; in assay [6] it was 100%. Moreover, the Activity in [7] is 100%; in assay [8], 82%; in assay [9], 79%; in [10], 100%; in [11] it was 100%; in [12] it was 81%. For the same compound, the Activity in [13] was 95%; in [14], 74%; in assay [15], 93%; in [16] it was 100%; in [17], 100%; in assay [18], 100%. The Activity is 92% in assay [19]; 88% in assay [20]; 100% in assay [21]; 93% in assay [22]; 89% in assay [23]; 79% in assay [24].
